Results published in US20070244155A1 (AMGEN INC., priority 2006, published 2007).

Target: T1, human GPR40 (Homo sapiens, UniProt O14842)
T1 construct: expressed in transfected cells; host or cells: CHO cells
Assay: Cell-based aequorin assay using human GPR40
Details: CHO cells transfected with GPR40 and aequorin expression vectors; aequorin luminescence; activation of human GPR40; read-out: Relative EC50
Method: A cell-based aequorin assay may be employed to characterize the modulatory activity of compounds on the GPR40 signaling pathway. In an exemplary assay, CHO cells are transfected in a 15 cm plated containing 14 million cells with 5 μg of GPR40 expression vector and 5 μg of Aequorin expression vector (Euroscreen) using Lipofectamine 2000 (Invitrogen). After 17-24 hours post-transfection, cells are washed with phosphate buffered saline (PBS) and detached from the tissue culture dish with 2 mL of trypsin (0.25%(w/v)). Trypsinization is halted with 28 mL of Hanks Buffered Salt Solution containing 20 mM Hepes (H/HBSS) and 0.01% fatty acid-free bovine serum albumin (BSA) or 0.625% fatty acid-free human serum albumin (HSA). Coelantrazine is added to 1 ug/mL and the cells are incubated for 2 hours at room temperature. Cells are gently mixed every 15 minutes. Compounds are dissolved in dimethyl sulfoxide for preparation of 10 mM stock solutions. Compounds are diluted in H/HBSS containing either 0.01% BSA or 0.625% HSA. Serial dilutions of the test compounds are prepared to determine dose response. Aequorin luminescence measurements are made using an EG&G Berthold 96-well luminometer and the response is measured over a 20 second interval after cells and compounds are mixed. The area-under-curve from 2-20 seconds is plotted to determine dose response. The EC50 (effective concentration to reach 50% maximal response) is determined from the dose response plot. Table 1 includes representative data (EC50 values) obtained for exemplary compounds of the invention for the relative activation of human GPR40. […] Therefore, in some embodiments, the invention provides any of the compounds listed in Table 1 individually or as members of a group and pharmaceutically acceptable salts, esters, solvates, tautomers, stereoisomers, and/or prodrugs thereof.

T1 sequence (O14842 whole entry): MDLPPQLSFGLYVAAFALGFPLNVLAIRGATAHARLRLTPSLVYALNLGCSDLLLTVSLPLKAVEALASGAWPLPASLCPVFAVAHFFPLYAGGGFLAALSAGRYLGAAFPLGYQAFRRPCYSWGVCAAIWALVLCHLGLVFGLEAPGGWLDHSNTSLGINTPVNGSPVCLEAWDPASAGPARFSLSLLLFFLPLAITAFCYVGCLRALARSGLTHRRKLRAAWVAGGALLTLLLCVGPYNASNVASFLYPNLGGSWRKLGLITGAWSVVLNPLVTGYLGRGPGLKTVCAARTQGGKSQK

| Compound | EC50 |
| --- | --- |
| C=C1COc2cc(OCc3ccc(-c4cc(C)ccc4OCCCC)cc3)ccc2[C@H]1CC(=O)O [Example 36, [(S)-7-(2′-Butoxy-5′-methyl-biphenyl-4-ylmethoxy)-3-methylene-chroman-4-yl]-acetic acid] | < 100 nM |
| C=C1COc2cc(OCc3ccc(-c4cc(C)ccc4OCCCC)cc3)ccc2[C@@H]1CC(=O)O [Example 37, [(R)-7-(2′-Butoxy-5′-methyl-biphenyl-4-ylmethoxy)-3-methylene-chroman-4-yl]-acetic acid] | 100 to 1000 nM |
| C/C=C1/COc2cc(OCc3ccc(-c4cc(C)ccc4OCCCC)cc3)ccc2C1CC(=O)O (centres unmarked) [Example 41] | 100 to 1000 nM |
| O=C(O)CC1COCc2cc(OCc3cccc(-c4ccc(C(F)(F)F)cc4)c3)ccc21 (centres unmarked) [Example 42, 2-(7-(3-(4-Trifluoromethylphenyl)benzyloxy)-3,4-dihydro-1H-isochromen-4-yl)acetic acid] | 100 to 1000 nM |
| Cc1ccccc1/C=C/c1ccc2c(c1)CCCC2CC(=O)O (centres unmarked) [Example 46, [6-((E)-2-o-Tolyl-vinyl)-1,2,3,4-tetrahydro-naphthalen-1-yl]-acetic acid] | 1000 to 10000 nM |
| COc1ccc(COc2ccc3c(c2)CCC(=O)N3CCC(=O)O)cc1 [Example 50, 3-[6-(4-Methoxy-benzyloxy)-2-oxo-3,4-dihydro-2H-quinolin-1-yl]-propionic acid] | 1000 to 10000 nM |
| O=C(O)CCn1ccc2cc(OCc3cccc(-c4ccc(C(F)(F)F)cc4)c3)ccc21 [Example 51] | 1000 to 10000 nM |
| O=C(O)Cn1ccc2cc(OCc3cccc(-c4ccc(C(F)(F)F)cc4)c3)ccc21 [Example 52] | 1000 to 10000 nM |
| O=C(O)CCn1ccc2cc(OCc3ccccc3)ccc21 [Example 53] | 1000 to 10000 nM |
| O=C(O)c1cc2ccc(OCc3cccc(Oc4ccccc4)c3)cc2oc1=O [Example 54, 7-(3-Phenoxybenzyloxy)-2-oxo-2H-chromene-3-carboxylic acid] | 1000 to 10000 nM |
| COc1cccc(-c2ccc(COc3ccc4c(c3)CCC[C@@H]4CC(=O)O)cc2)c1 [Example 58, (R)-[6-(3′-Methoxy-biphenyl-4-ylmethoxy)-1,2,3,4-tetrahydro-naphthalen-1-yl]-acetic acid] | 1000 to 10000 nM |
| CCOc1ccc(F)c(-c2ccc(COc3ccc4c(c3)CCC[C@H]4CC(=O)O)cc2)c1 [Example 59, (S)-[6-(5′-Ethoxy-2′-fluoro-biphenyl-4-ylmethoxy)-1,2,3,4-tetrahydro-naphthalen-1-yl]-acetic acid] | 1000 to 10000 nM |
| Cc1ccc(-c2nc(C)c(COc3ccc4c(c3)OCC[C@@H](C(=O)O)C4)s2)cc1 [Example 61, 8-((4-Methyl-2-p-tolylthiazol-5-yl)methoxy)-2,3,4,5-tetrahydrobenzo[b]oxepine-4-carboxylic acid] | 100 to 1000 nM |
| O=C(O)[C@@H]1CCOc2cc(OCc3cccc(-c4ccc(C(F)(F)F)cc4)c3)ccc2C1 [Example 63] | 1000 to 10000 nM |
| Cc1c(Cl)cccc1-c1cccc(COc2ccc3c(c2)OCC[C@@H](C(=O)O)C3)c1 [Example 64] | 100 to 1000 nM |
| Cc1c(Cl)cccc1-c1cccc(COc2ccc3c(c2)OCC[C@H](C(=O)O)C3)c1 [Example 65] | 1000 to 10000 nM |

Second part, the compound after the results:

| EC50 | Compound |
| --- | --- |
| 100 to 1000 nM | C=C1CCc2cc(OCc3cccc(-c4ccc(C(F)(F)F)cc4)c3)ccc2C1CC(=O)O (centres unmarked) [Example 38, 2-(6-(3-(4-Trifluoromethylphenyl)benzyloxy)-2-methylene-1,2,3,4-tetrahydronaphthalen-1-yl)acetic acid] |
| 1000 to 10000 nM | COc1ccc(/C=C/c2ccc3c(c2)CCCC3CC(=O)O)cc1 (centres unmarked) [Example 47, {6-[(E)-2-(4-Methoxy-phenyl)-vinyl]-1,2,3,4-tetrahydro-naphthalen-1-yl}-acetic acid] |
| 1000 to 10000 nM | O=C(O)CC1CCCc2cc(CCc3ccc(C(F)(F)F)cc3)ccc21 (centres unmarked) [Example 48, {6-[2-(4-Trifluoromethyl-phenyl)-ethyl]-1,2,3,4-terahydro-naphthalen-1-yl}-acetic acid] |
| 1000 to 10000 nM | O=C(O)CC1CCCc2cc(CCc3ccc(-c4ccccc4)cc3)ccc21 (centres unmarked) [Example 49, [6-(2-Biphenyl-4-yl-ethyl)-1,2,3,4-tetrahydro-naphthalen-1-yl]-acetic acid] |
| 100 to 1000 nM | Cc1cc(Cl)ccc1-c1cccc(COc2ccc3c(c2)CCC[C@@H]3CC(=O)O)c1 [Example 55] |
| 100 to 1000 nM | Cc1nc(-c2ccc(C(F)(F)F)cc2)sc1COc1ccc2c(c1)CCC[C@@H]2CC(=O)O [Example 56] |
| 1000 to 10000 nM | COc1cccc(-c2ccc(COc3ccc4c(c3)CCC[C@H]4CC(=O)O)cc2)c1 [Example 57, (S)-[6-(3′-Methoxy-biphenyl-4-ylmethoxy)-1,2,3,4-tetrahydro-naphthalen-1-yl]-acetic acid] |
